Literature values as cited in patent US20050031668A1, “Implantable polymeric device for sustained release of nalmefene” (priority 2003, published 2005).

Legend:
[1] = in vivo
[2] = system: μ, δ, and κ receptors
[3] = in vivo; remark: listed apart in the source
[4] = not given; remark: listed apart in the source
[5] = not given; remark: listed apart in the source

| Compound | limitations of use: hepatotoxicity [1] | limitations of use: nausea [1] | opioid receptors acted on [2] | nausea (20 or 80 mg/day orally) | serious adverse events (20 or 80 mg/day orally) | proportion of nalmefene patients who relapsed (20 or 80 mg/day orally, twelve weeks) | relapse to heavy drinking versus placebo (20 or 80 mg/day orally, twelve-week study, 105 alcoholic patients) | number of abstinent days and self-reported craving (treated versus control groups) | efficacy in animal models of alcoholism [3] | agonist activity [2] | rate of relapse compared with placebo or 10 mg nalmefene ([4]; 40 mg oral, 21 alcohol-dependent patients) | number of drinks per drinking day ([4]; 40 and 10 mg doses) | half-life ([5]; compared with naltrexone) | serious adverse effects ([5]; in vivo) |
| --- | --- | --- | --- | --- | --- | --- | --- | --- | --- | --- | --- | --- | --- | --- |
| O=C1CC[C@@]2(O)[C@H]3Cc4ccc(O)c5c4[C@@]2(CCN3CC2CC2)[C@H]1O5 [naltrexone] | dose-dependent hepatotoxic side effects | intolerable nausea | primarily blocks μ receptors |  |  |  |  |  |  |  |  |  |  |  |
| C=C1CC[C@@]2(O)[C@H]3Cc4ccc(O)c5c4[C@@]2(CCN3CC2CC2)[C@H]1O5 [nalmefene] |  |  | acts on μ, δ, and κ receptors | Transient nausea | no serious adverse events occurred | One-third | Fewer patients receiving nalmefene relapsed to heavy drinking | the same in treated and control groups | effective | no agonist activity | significantly lower rate of relapse | significantly decreased | longer half-life | no serious adverse effects |
